Laboratory results published in patent US10047081B2, “BACE1 inhibitors” (Hoffmann-La Roche Inc., priority 2015, dated 2018).

Tests used:
[1] = target: T1, BACE1 (Homo sapiens, UniProt P56817); test: Cellular Aβ-lowering assay (Abeta 40 AlphaLISA, HEK293 APP cells); assay type: cell-based; details: 18-20 hrs incubation, Aβ 40 in culture supernatant, read-out: BACE1 cell act. Aβ40 IC50
T1 construct: endogenous in cells; host or cells: HEK293 APP cells
How it was run: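 HEK293 APP cells were treated with compound for 18-20 hrs at 37° C in 1% DMSO. Secreted Aβ40 in the supernatant was measured by AlphaLISA at 615 nm. Values are % of the DMSO-only signal, fit to give IC50.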

[2] = target: T2, cathepsin D (from human liver) (Homo sapiens, UniProt P07339); test: Cathepsin D fluorescent substrate kinetic assay; assay type: biochemical; details: pH 5.5, substrate WTSVLMAAPC-MR121
T2 construct: cathepsin D (from human liver, Calbiochem) diluted in assay buffer; purchased Calbiochem; host or cells: human liver
T2 sequence (P07339 65-162 limits assumed): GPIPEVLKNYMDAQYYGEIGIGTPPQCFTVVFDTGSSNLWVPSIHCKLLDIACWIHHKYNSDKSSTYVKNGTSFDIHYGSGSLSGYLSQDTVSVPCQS
T2 sequence (P07339 169-412 limits assumed): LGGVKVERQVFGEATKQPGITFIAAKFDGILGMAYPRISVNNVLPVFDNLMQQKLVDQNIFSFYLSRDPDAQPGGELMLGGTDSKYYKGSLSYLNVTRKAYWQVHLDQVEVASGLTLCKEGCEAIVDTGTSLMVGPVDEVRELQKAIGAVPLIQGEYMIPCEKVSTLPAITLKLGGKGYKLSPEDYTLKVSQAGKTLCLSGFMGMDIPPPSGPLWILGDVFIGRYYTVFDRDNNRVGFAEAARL
Text: Cathepsin D and Cathepsin E Fluorescent Substrate Kinetic Assays
The MR121 fluorescence assays described below are based on the fact that MR121 forms a non-fluorescent ground state complex with tryptophan. In solution this formation occurs at millimolar concentrations of tryptophan. The mechanism can be used to design a generic biochemical assay for proteases. A substrate peptide is labeled at the N-terminus with tryptophan and at the C-terminus with the fluorophore MR121 (for cathepsin D the 10 amino acid peptide WTSVLMAAPC-MR121 was used; for cathepsin E, MR121-CKLVFFAEDW was used). In absence of protease activity, the substrates remain intact and the MR121 fluorescence is reduced by the high local Trp-concentration. If the substrates are cleaved by the enzymes the MR121 fluorescence is recovered.
The fluorescent substrate cathepsin D and cathepsin E kinetic assays were performed at room temperature in 384-well microtiter plates (black with clear flat bottom, non-binding surface plates from Corning) in a final volume of 51 μl. The test compounds were serially diluted in DMSO (15 concentrations, ⅓ dilution steps) and 1 μl of diluted compounds were mixed for 10 min with 40 μl of cathepsin D (from human liver, Calbiochem) diluted in assay buffer (100 mM sodium acetate, 0.05% BSA, pH 5.5; final concentration:200 nM) or with 40 μl of recombinant human cathepsin E (R&D Systems) diluted in assay buffer (100 mM sodium acetate, 0.05% BSA, pH 4.5; final concentration:0.01 nM). After addition of 10 μl of the cathepsin D substrate WTSVLMAAPC-MR121 diluted in cathepsin D assay buffer (final concentration:300 nM) or 10 μl of the cathepsin E substrate MR121-CKLVFFAEDW diluted in cathepsin E assay buffer (final concentration:300 nM), the plates were strongly shaken for 2 minutes. The enzymatic reaction was followed in a plate: vision reader (Perkin Elmer) (excitation wavelength:630 nm; emission:695 nm) for at least 30 minutes in a kinetic measurement detecting an increase of MR121 fluorescence during the reaction time. The slope in the linear range of the kinetic was calculated and the IC50 of the test compounds were determined using a four parameter equation for curve fitting.

[3] = target: T3, CYP3A4 (Homo sapiens, UniProt P08684); test: CYP inhibition assay, human liver microsomes; assay type: in vitro ADME; details: human liver microsomes, substrate midazolam; read-out: CYP IC50 3A4
T3 construct: 0.2 mg/ml pooled human liver microsomes; from tissue; host or cells: pooled human liver microsomes
T3 sequence (P08684 whole entry): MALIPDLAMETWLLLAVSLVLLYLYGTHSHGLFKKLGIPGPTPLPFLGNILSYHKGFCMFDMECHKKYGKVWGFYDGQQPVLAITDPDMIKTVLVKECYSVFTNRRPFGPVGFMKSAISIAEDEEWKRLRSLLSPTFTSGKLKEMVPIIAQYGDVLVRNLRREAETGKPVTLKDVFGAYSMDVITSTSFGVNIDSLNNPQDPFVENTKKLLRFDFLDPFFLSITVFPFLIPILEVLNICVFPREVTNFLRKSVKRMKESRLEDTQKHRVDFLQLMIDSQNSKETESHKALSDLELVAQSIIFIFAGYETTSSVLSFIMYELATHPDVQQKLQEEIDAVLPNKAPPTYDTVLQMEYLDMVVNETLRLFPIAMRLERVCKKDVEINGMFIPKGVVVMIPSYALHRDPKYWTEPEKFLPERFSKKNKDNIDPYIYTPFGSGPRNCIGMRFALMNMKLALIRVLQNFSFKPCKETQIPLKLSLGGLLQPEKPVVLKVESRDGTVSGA
Experimental: (§1) Inhibition of cytochromes P450 (CYPs) 2C9, 2D6 and 3A4 was assessed using human liver microsomes and CYP-selective substrate metabolism reactions. 50 μl incubations were made up containing (finally) 0.2 mg/ml pooled human liver microsomes, 5 μM substrate (diclofenac for CYP2C9 [4′hydroxylase], dextromethorphan for CYP2D6 [O-demethylase] or midazolam for CYP3A4 [1′hydroxylase]), 0.25 μL DMSO containing test inhibitor and NADPH regenerating system. Test inhibitor concentrations of 50, 16.7, 5.6, 1.9, 0.6 and 0.2 μM were assessed in singlicate. Incubations were prewarmed to 37° C. for 10 minutes before initiation by addition of NADPH regenerating system. Incubations were quenched after 5 minutes (20 minutes for dextromethorphan) by addition of 50 μl cold acetonitrile containing 20 ng/ml 4-OH-diclofenac-13C6, 20 ng/mL dextrorphan-D3 and 20 ng/mL 1-OH-midazolam-D4. Quenched incubates were stored at −20° C. for at least 1 hour before centrifugation (20,000× g, 20 minutes). Supernatants were removed and diluted 1:1 with water prior to analysis using a RapidFire sample injector system and API4000 mass spectrometer. Peak areas for substrate, metabolite and stable-labelled metabolite standard were determined using MS/MS. The peak area ratios between the metabolite generated by the enzymatic reaction and the internal standard were used in subsequent calculations. The percentage of (DMSO) control activity was calculated for each incubate and IC50 values estimated by non-linear regression. Sulfaphenazole, quinidine or ketoconazole were tested in each CYP2C9, CYP2D6 or CYP3A4 inhibition experiment, respectively, to ensure assay sensitivity and reproducibility. (Validated assays for human cytochrome P450 activities, R. L. Walsky and R. S. Obach, Drug Metabolism and Disposition 32: 647-660, 2004. and S. Fowler and H. Zhang, The AAPS Journal, Vol. 10, No. 2, 410-424, 2008)

[4] = target: T4, CYP2C9 (Homo sapiens, UniProt P11712); test: CYP inhibition assay, human liver microsomes; assay type: in vitro ADME; details: human liver microsomes, substrate diclofenac; read-out: CYP IC50 2C9
T4 construct: 0.2 mg/ml pooled human liver microsomes; from tissue; host or cells: pooled human liver microsomes
T4 sequence (P11712 whole entry): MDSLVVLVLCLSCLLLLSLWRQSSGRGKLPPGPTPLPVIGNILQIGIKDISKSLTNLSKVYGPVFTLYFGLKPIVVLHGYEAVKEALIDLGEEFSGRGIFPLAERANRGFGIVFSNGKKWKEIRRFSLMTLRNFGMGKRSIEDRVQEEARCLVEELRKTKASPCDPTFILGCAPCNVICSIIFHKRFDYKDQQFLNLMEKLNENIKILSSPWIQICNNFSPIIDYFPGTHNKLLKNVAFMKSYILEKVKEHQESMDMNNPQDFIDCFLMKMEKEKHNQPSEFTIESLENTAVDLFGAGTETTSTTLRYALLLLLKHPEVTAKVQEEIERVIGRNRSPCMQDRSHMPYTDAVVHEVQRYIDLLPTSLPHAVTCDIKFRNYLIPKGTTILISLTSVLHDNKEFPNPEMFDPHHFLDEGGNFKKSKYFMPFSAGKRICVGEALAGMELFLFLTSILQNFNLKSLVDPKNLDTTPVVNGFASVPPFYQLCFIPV
Experimental: as §1

[5] = GSH human, in vitro adduct formation; assay type: in vitro ADME; set-up: key: NF = in vitro no significant adduct formation relative to control; details: in vitro adduct formation relative to control
[6] = target: T5, CYP2D6 (Homo sapiens, UniProt P10635); test: CYP inhibition assay, human liver microsomes; assay type: in vitro ADME; details: human liver microsomes, substrate dextromethorphan; read-out: CYP IC50 2D6
T5 construct: 0.2 mg/ml pooled human liver microsomes; from tissue; host or cells: pooled human liver microsomes
T5 sequence (P10635 whole entry): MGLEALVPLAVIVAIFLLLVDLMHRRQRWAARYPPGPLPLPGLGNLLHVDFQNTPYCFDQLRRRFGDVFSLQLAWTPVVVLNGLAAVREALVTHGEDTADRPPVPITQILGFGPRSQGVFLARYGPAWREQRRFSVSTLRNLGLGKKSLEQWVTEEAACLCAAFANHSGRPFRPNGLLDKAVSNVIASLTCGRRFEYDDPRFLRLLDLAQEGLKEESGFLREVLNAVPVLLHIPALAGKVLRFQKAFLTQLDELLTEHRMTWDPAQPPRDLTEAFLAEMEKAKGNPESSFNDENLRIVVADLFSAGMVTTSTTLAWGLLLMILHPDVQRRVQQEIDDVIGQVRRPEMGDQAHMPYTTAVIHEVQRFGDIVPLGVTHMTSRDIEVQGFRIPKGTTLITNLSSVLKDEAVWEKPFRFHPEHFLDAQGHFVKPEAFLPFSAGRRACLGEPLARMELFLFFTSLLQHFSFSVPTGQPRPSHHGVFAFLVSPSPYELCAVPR
Experimental: as §1

T1 sequence (P56817 46-501): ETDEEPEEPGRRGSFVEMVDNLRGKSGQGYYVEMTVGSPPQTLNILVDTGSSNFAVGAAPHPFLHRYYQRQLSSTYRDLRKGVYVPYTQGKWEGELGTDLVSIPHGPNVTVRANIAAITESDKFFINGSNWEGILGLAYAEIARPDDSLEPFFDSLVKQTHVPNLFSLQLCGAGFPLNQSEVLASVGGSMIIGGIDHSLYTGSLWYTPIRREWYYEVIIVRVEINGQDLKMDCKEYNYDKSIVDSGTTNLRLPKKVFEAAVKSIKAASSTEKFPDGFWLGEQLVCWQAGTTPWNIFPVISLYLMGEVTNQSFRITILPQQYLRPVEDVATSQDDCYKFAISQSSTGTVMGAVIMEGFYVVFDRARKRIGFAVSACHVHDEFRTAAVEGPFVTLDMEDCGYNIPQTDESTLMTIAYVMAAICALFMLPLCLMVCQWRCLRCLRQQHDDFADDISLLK

IC50 [1] [µM] | IC50 [2] [µM] | IC50 [3] [µM] | IC50 [4] [µM] | GSH human [5] | IC50 [6] [µM] | SMILES
0.013 | 29 | > 10 | > 10 | NF |  | CN=[S@@]1(=O)C[C@@](C)(c2cc(-c3cc(-c4cnc(OCC(F)F)cn4)no3)ccc2F)N=C(N)C1(C)C [Example 5, (1R,3R)-5-amino-3-(5-(3-(5-(2,2-difluoroethoxy)pyrazin-2-yl)isoxazol-5-yl)-2-fluorophenyl)-3,6,6-trimethyl-1-(methylimino)-3,6-dihydro-2H-1,4-thiazine 1-oxide 2,2,2-trifluoroacetate]
0.006 | 38 | > 10 | > 10 | NF | > 10 | CN=[S@@]1(=O)C[C@@](C)(c2cc(-c3cc(-c4ncc(Cl)cn4)no3)ccc2F)N=C(N)C1(C)C [Example 6, (1R,3R)-5-amino-3-(5-(3-(5-chloropyrimidin-2-yl)isoxazol-5-yl)-2-fluorophenyl)-3,6,6-trimethyl-1-(methylimino)-3,6-dihydro-2H-1,4-thiazine 1-oxide 2,2,2-trifluoroacetate]
0.056 | 37 | > 10 | > 10 | NF | > 10 | CN=[S@@]1(=O)C[C@@](C)(c2cc(-c3cc(-c4cnc(OC)cn4)no3)ccc2F)N=C(N)C1(C)C [Example 7, (1R,3R)-5-amino-3-(2-fluoro-5-(3-(5-methoxypyrazin-2-yl)isoxazol-5-yl)phenyl)-3,6,6-trimethyl-1-(methylimino)-3,6-dihydro-2H-1,4-thiazine 1-oxide 2,2,2-trifluoroacetate]
0.05 | 39 | > 10 | > 10 |  | > 10 | [2H]C([2H])([2H])N=[S@@]1(=O)C[C@@](C)(c2cc(-c3cc(-c4cnc(OC)cn4)no3)ccc2F)N=C(N)C1(C)C [Example 24, (1R,3R)-3-[2-fluoro-5-[3-(5-methoxypyrazin-2-yl)isoxazol-5-yl]phenyl]-3,6,6-rimethyl-1-oxo-1-(trideuteriomethylimino)-2H-1,4-thiazin-5-amine 2,2,2-trifluoroacetate]
